Assay [1] has as its system OPM-2 human multiple myeloma cell line. Nature of the assay: Cell Viability Assay (OPM-2 10 FBS). Particulars: OPM-2 cells, CellTiter-Glo. In kind it is cell-based. In a few lines:
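OPM-2 myeloma cells, 3000/well in medium with 10% FBS, exposed to serially diluted compounds for 16 h at 37° C./5% CO2. Viability read by CellTiter-Glo luminescence; IC50 from 4-parameter logistic fit.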
In general terms: ATP-based viability assays read luminescence as a measure of living cells.

For assay [2], the target named is T1, Mcl-1/Bim interaction, recombinant human Mcl-1 (171-327) (Homo sapiens, UniProt Q07820).
T1 construct: made in house
T1 sequence (Q07820 171-327): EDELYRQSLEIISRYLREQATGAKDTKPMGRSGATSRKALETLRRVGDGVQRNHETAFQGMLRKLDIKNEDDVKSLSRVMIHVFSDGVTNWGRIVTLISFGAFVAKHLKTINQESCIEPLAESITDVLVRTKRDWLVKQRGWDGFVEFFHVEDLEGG
Nature of the assay: Cell free Mcl-1: Bim Affinity Assay (Mcl-1 HTRF). It is filed as binding. In a few lines:
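TR-FRET competition assay with biotinylated human Bim peptide (residues 51-76); reaction plates incubated overnight before reading. IC50 values came from duplicate data fitted to a four-parameter sigmoidal competition curve.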

The mark [3] stands for this setting: Homo sapiens, OPM-2, 16 h, 16 h.
Setting [4] is: TR-FRET, 0.1 nM Mcl-1 (171-327), 0.05 nM biotin-Bim (51-76).
[5] abbreviates: cell free Mcl-1:Bim TR-FRET, recombinant human Mcl-1 (171-327).
The mark [6] stands for this setting: Homo sapiens, OPM-2, 16 h, 16 h incubation.

In US12091425B2 (AMGEN INC., priority 2016, dated 2024) one finds IC50 data, which are given here for 16 molecules.

Molecules are shown by their SMILES.

For the molecule `CS(=O)(=O)CCN1CC/C=C/[C@H](O)[C@@H]2CC[C@H]2CN2C[C@@]3(CCCc4cc(Cl)ccc43)COc3ccc(cc32)C(=O)NS1(=O)=O` [Example 34, (1S,3′R,6′R,7′S,8′E)-6-chloro-7′-hydroxy-12′-(2-(methylsulfonyl)ethyl)-3,4-dihydro-2H,15′H-spiro[naphthalene-1,22′-[20]oxa[13]thia[1,12,14]triazatetracyclo[14.7.2.0^3,6.0^19,24]pentacosa[8,16,18,24]tetraen]-15′-one 13′,13′-dioxide], the results for the IC50 in assay [1] (setting [3]) and in assay [2] (setting [4]) were 3600 nM and 0.62 nM, respectively.
As for `O=C1NS(=O)(=O)CCC/C=C/[C@@H](OCc2nccs2)[C@@H]2CC[C@H]2CN2C[C@@]3(CCCc4cc(Cl)ccc43)COc3ccc1cc32` [Example 216, (1S,3′R,6′R,7′R,8′E)-6-chloro-7′-(1,3-thiazol-2-ylmethoxy)-3,4-dihydro-2H,15′H-spiro[naphthalene-1,22′-[20]oxa[13]thia[1,14]diazatetracyclo[14.7.2.0^3,6.0^19,24]pentacosa [8,16,18,24]tetraen]-15′-one 13′,13′-dioxide], the half-inhibitory concentration (IC50) in assay [1] (setting [3]) worked out at 26200 nM; in assay [2] (setting [4]) it was 9.77 nM.
In the case of `CC[C@@H]1C[C@H](C)/C=C/[C@H](OCCN2CCOCC2)[C@@H]2CC[C@H]2CN2C[C@@]3(CCCc4cc(Cl)ccc43)COc3ccc(cc32)C(=O)NS1(=O)=O` (single isomer, unassigned) [Example 1027], the IC50 in assay [1] (16 h incubation) was 218 nM; in assay [2] (setting [4]), 0.945 nM.
Turning to `C[C@@H]1[C@@H](C)C/C=C/[C@H](OCC(=O)N2CCN(C)CC2)[C@@H]2CC[C@H]2CN2C[C@@]3(CCCc4cc(Cl)ccc43)COc3ccc(cc32)C(=O)NS1(=O)=O` [Example 316, (1S,3′R,6′R,7′S,8′E,11′S,12′R)-6-chloro-11′,12′-dimethyl-7′-(2-(4-methyl-1-piperazinyl)-2-oxoethoxy)-3,4-dihydro-2H,15′H-spiro[naphthalene-1,22′-[20]oxa[13]thia[1,14]diazatetracyclo[14.7.2.0^3,6.0^19,24]pentacosa [8,16,18,24]tetraen]-15′-one 13′,13′-dioxide], the half-inhibitory concentration (IC50) in assay [1] (setting [3]) stood at 162 nM; in assay [2] (setting [4]), 0.0986 nM.
Regarding `CC[C@@H]1C[C@H](C)/C=C/[C@H](O)[C@@H]2CC[C@H]2CN2C[C@@]3(CCCc4cc(Cl)ccc43)COc3ccc(cc32)C(=O)NS1(=O)=O` (single isomer, unassigned) [Example 1024], the IC50 in assay [1] (16 h incubation) stood at 414 nM; in assay [2] (setting [4]) it was 0.296 nM.
Take `Cn1cnc(CO[C@H]2/C=C/C[C@@H]3CCC[C@H]3S(=O)(=O)NC(=O)c3ccc4c(c3)N(C[C@@H]3CC[C@H]32)C[C@@]2(CCCc3cc(Cl)ccc32)CO4)n1` (single isomer, unassigned) [Example 328]: the IC50 in assay [1] (16 h) worked out at 428 nM; in assay [2] (setting [4]), 0.44 nM.
Take `O=C1NS(=O)(=O)[C@@H]2CCCC[C@H]2C/C=C/[C@H](O)[C@@H]2CC[C@H]2CN2C[C@@]3(CCCc4cc(Cl)ccc43)COc3ccc1cc32` (single isomer, unassigned) [Example 331]: the IC50 in assay [1] (setting [3]) is 284 nM; in assay [2] (setting [4]), 0.248 nM.
Regarding `O=C1NS(=O)(=O)C(c2ccccc2)CC/C=C/[C@H](O)[C@@H]2CC[C@H]2CN2C[C@@]3(CCCc4cc(Cl)ccc43)COc3ccc1cc32` (single isomer, unassigned) [Example 675], the half-maximal inhibitory concentration (IC50) amounted to 480 nM in assay [1] (16 h) and 0.437 nM in assay [2] (setting [5]).
For the molecule `C[C@@H]1[C@@H](C)C/C=C/[C@H](OC[C@@H](C)O)[C@@H]2CC[C@H]2CN2C[C@@]3(CCCc4cc(Cl)ccc43)COc3ccc(cc32)C(=O)NS1(=O)=O` (single isomer, unassigned) [Example 527], the half-inhibitory concentration (IC50) in assay [1] (16 h) is 64.7 nM; in assay [2] (setting [5]) it was 0.217 nM.
Take `O=C1NS(=O)(=O)[C@H](Cc2nccs2)CC/C=C/[C@H](O)[C@@H]2CC[C@H]2CN2C[C@@]3(CCCc4cc(Cl)ccc43)COc3ccc1cc32` (single isomer, unassigned) [Example 373]: the half-inhibitory concentration (IC50) in assay [1] (16 h) was 404 nM; in assay [2] (setting [4]), 0.731 nM.
For the molecule `CC[C@@H]1CC/C=C/[C@H](OCc2nnc(C)o2)[C@@H]2CC[C@H]2CN2C[C@@]3(CCCc4cc(Cl)ccc43)COc3ccc(cc32)C(=O)NS1(=O)=O` [Example 966, (1S,3′R,6′R,7′S,8′E,12′R)-6-chloro-12′-ethyl-7′-((5-methyl-1,3,4-oxadiazol-2-yl)methoxy)-3,4-dihydro-2H,15′H-spiro[naphthalene-1,22′-[20]oxa[13]thia[1,14]diazatetracyclo[14.7.2.0^3,6.0^19,24]pentacosa [8,16,18,24]tetraen]-15′-one 13′,13′-dioxide], the figures for the IC50 in assay [1] (setting [6]) and in assay [2] (setting [4]) were 754 nM and 0.349 nM, respectively.
For `C[C@H]1C/C=C/C[C@H](O)[C@@H]2CC[C@H]2CN2C[C@@]3(CCCc4cc(Cl)ccc43)COc3ccc(cc32)C(=O)NS(=O)(=O)[C@H]1C` (single isomer, unassigned) [Example 557], the figures for the concentration for half-maximal inhibition (IC50) in assay [1] (16 h) and in assay [2] (setting [5]) were 1040 nM and 1.08 nM, respectively.
As to `C[C@@H]1[C@@H](C)C[C@H](CC(=O)N(C)C)/C=C/[C@@H]2CC[C@H]2CN2C[C@@]3(CCCc4cc(Cl)ccc43)COc3ccc(cc32)C(=O)NS1(=O)=O` [Example 1072, 2-((1S,3′R,6′S,7′E,9′R,11′S,12′R)-6-chloro-11′,12′-dimethyl-13′,13′-dioxido-15′-oxo-3,4-dihydro-2H-spiro[naphthalene-1,22′-[20]oxa[13]thia[1,14]diazatetracyclo[14.7.2.0^3,6.0^19,24]pentacosa [7,16,18,24]tetraen]-9′-yl)-N,N-dimethylacetamide], the half-maximal inhibitory concentration (IC50) in assay [1] (setting [6]) turned out to be 1510 nM; in assay [2] (setting [4]), 1.36 nM.
As for `CO[C@H]1/C=C/C[C@@H]2COCC[C@H]2S(=O)(=O)NC(=O)c2ccc3c(c2)N(C[C@@H]2CC[C@H]21)C[C@@]1(CCCc2cc(Cl)ccc21)CO3` (single isomer, unassigned) [Example 320], the half-maximal inhibitory concentration (IC50) in assay [1] (16 h) was found to be 342 nM; in assay [2] (setting [4]), 0.329 nM.
`COCCO[C@H]1/C=C/[C@H](C)[C@H](C)[C@@H](C)S(=O)(=O)NC(=O)c2ccc3c(c2)N(C[C@@H]2CC[C@H]21)C[C@@]1(CCCc2cc(Cl)ccc21)CO3` [Example 1048, (1S,3′R,6′R,7′S,8′E,10′S,11′S,12′R)-6-chloro-7′-(2-methoxyethoxy)-10′,11′,12′-trimethyl-3,4-dihydro-2H,15′H-spiro[naphthalene-1,22′-[20]oxa[13]thia[1,14]diazatetracyclo[14.7.2.0^3,6.0^19,24]pentacosa [8,16,18,24]tetraen]-15′-one 13′,13′-dioxide]: the IC50 in assay [1] (setting [6]) turned out to be 90.8 nM; in assay [2] (setting [4]) it was 0.299 nM.
With `CCN1[C@H](C)CCC[C@H](O)[C@@H]2CC[C@H]2CN2C[C@@]3(CCCc4cc(Cl)ccc43)COc3ccc(cc32)C(=O)NS1(=O)=O` [Example 84, (1S,3′R,6′R,7′S,11R)-6-chloro-12′-ethyl-7′-hydroxy-11′-methyl-3,4-dihydro-2H,15′H-spiro[naphthalene-1,22′-[20]oxa[13]thia[1,12,14]triazatetracyclo[14.7.2.0^3,6.0^19,24]pentacosa[16,18,24]trien]-15′-one 13′,13′-dioxide], the IC50 came to 5900 nM in assay [1] (setting [3]) and 13.2 nM in assay [2] (setting [4]).

By IC50 is commonly meant the concentration needed to halve the response being measured.
